In patent publication US10526337B2, “Heteroaryl derivative or pharmaceutically acceptable salt thereof, preparation method therefor, and pharmaceutical composition for preventing or treating diseases associated with PI3 kinases, containing same as active ingredient” (KOREA RESEARCH INSTITUTE OF CHEMICAL TECHNOLOGY, priority 2015, dated 2020):

Key:
PI3 Kinase (p120γ) (h) = molecular target: T1, PI3 Kinase (p120γ) (h) (Homo sapiens, UniProt P48736); assay: Inhibition of phosphatidylinositol 3-kinase gamma (PI3K γ), pAkt Western blotting in C5a-stimulated RAW264.7 macrophages; assay type: cell-based, mouse; details: ATP=10 uM, sample concentration=100 nM
T1 construct: endogenous in cells; host or cells: RAW264.7
T1 sequence (P48736 whole entry): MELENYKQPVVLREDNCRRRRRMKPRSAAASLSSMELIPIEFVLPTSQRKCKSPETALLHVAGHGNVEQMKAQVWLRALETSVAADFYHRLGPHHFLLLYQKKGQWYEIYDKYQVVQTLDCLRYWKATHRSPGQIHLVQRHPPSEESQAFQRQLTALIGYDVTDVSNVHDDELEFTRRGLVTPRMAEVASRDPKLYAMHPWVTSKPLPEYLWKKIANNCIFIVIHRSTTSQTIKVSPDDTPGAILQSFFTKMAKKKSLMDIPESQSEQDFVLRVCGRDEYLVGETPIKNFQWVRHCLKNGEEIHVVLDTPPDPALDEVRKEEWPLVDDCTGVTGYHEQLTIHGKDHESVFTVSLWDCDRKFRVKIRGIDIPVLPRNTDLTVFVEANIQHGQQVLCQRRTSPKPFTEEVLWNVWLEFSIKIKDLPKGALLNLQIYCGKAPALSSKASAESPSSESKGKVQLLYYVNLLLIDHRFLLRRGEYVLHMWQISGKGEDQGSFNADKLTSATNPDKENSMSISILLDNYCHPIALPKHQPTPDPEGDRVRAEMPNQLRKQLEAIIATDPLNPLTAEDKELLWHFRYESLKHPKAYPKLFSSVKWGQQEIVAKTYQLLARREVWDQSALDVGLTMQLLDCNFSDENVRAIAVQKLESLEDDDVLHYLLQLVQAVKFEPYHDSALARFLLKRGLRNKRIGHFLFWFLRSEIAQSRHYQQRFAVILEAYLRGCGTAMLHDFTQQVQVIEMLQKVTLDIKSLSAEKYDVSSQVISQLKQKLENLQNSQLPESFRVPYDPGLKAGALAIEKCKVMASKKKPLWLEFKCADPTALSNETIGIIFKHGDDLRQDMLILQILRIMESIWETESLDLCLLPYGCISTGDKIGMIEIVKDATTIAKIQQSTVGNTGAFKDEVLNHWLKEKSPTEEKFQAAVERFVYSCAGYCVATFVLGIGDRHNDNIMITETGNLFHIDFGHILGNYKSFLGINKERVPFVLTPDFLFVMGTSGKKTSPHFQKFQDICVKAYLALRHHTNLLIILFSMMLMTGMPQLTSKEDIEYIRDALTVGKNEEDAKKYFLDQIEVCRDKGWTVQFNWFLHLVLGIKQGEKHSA
Description: (§1) The stimulated cells were transferred in a 1.5 mL tube, followed by centrifugation at 3000 rpm for 1 minute. 100 μL of RIPA buffer (radioimmunoprecipitation assay buffer, 50 mM Tris-HCl, 5 mM EDTA, 150 mM NaCl, 1% NP-40, 1 mM PMSF, pH 8.0; ELPIS, Korea) was added thereto, which was stored in a 4° C. refrigerator for 12 hours. Centrifugation was performed at 4° C. at 14,000 rpm for 20 minutes. The supernatant was transferred into a new 1.5 mL tube. Protein was quantified by BCA (bicinchoninic acid) method and samples were prepared. The composition of the sample was as follows: sample buffer (ELPIS, EBA-1052) 5×, protein 10 μg, and 1× sample buffer to make the total volume 20 μL. The sample was heated at 100° C. for 5 minutes. The evaporated water vapor was condensed in a refrigerator. The liquid stained on the wall was fallen down by centrifugation for a few seconds. The sample proceeded to 10% SDS (Sodium Dodecyl Sulfate) acrylamide gel for separation. The separated protein was transferred onto PVDF (poly-vinyl difluoride) membrane, followed by reaction with pAkt (phospho protein kinase B) antibody (Ser473 or Thr308; Cell signaling, 9271s or 13038s) for 12 hours at 4° C. The membrane was washed with TBST (Tris-Buffered Saline with Tween 20, 10 mM Tris-HCl, pH 7.5, 150 mM NaCl, 0.1% Tween-20) three times for 5 minutes each, to which the secondary antibody (rabbit antibody, Santacruz, sc-2004) was added, followed by reaction at room temperature for 2 hours. The membrane was washed with TBST three times for 10 minutes each, to which ECL (enhanced chemiluminescence, Thermo, NCI34095KR) was sprayed. Bands were investigated by using LAS-3000.
The inhibition of phosphatidylinositol 3 kinase gamma (PI3K γ) by those compounds prepared in Examples 1˜98 was investigated by the following experiment. The inhibition activity of each compound was measured in the following conditions: ATP=10 uM, and sample concentration=100 nM.
(§2) Macrophages (RAW264.7) cultured in DMEM (Dulbecco's Modified Eagle Medium, Hyclon, SH30243.01) supplemented with 10% fetal bovine serum (Hyclon, USA) were distributed in a 12-well plate at the density of 1,000,000 cells/well. The cells were stabilized in a 37° C. CO2 for 24 hours and then treated with each compound for 1 and half hours. The cells were treated with 10 ng/mL of C5a (complement component 5a, 10 μg/mL; R&D, 2150-C5) to increase the intracellular activity of PI3K gamma. 5 minutes later, the medium was discarded and the cells were washed with cold PBS (phosphate buffered saline, Gibco, 14190-250). PBS was then eliminated completely by using a pipette. Western blotting was performed according to the same manner as described in step 2 of Experimental Example 1 to evaluate the intracellular PI3K gamma activity.

[1] = molecular target: T2, PI3 Kinase (p110δ/p85α) (h) (Homo sapiens, UniProt O00329); assay: Inhibition of phosphatidylinositol 3-kinase delta (PI3K δ), pAkt Western blotting in IgM-stimulated Raji cells; assay type: cell-based; details: ATP=10 uM, sample concentration=100 nM
T2 construct: endogenous in cells; host or cells: Raji
T2 sequence (O00329 whole entry): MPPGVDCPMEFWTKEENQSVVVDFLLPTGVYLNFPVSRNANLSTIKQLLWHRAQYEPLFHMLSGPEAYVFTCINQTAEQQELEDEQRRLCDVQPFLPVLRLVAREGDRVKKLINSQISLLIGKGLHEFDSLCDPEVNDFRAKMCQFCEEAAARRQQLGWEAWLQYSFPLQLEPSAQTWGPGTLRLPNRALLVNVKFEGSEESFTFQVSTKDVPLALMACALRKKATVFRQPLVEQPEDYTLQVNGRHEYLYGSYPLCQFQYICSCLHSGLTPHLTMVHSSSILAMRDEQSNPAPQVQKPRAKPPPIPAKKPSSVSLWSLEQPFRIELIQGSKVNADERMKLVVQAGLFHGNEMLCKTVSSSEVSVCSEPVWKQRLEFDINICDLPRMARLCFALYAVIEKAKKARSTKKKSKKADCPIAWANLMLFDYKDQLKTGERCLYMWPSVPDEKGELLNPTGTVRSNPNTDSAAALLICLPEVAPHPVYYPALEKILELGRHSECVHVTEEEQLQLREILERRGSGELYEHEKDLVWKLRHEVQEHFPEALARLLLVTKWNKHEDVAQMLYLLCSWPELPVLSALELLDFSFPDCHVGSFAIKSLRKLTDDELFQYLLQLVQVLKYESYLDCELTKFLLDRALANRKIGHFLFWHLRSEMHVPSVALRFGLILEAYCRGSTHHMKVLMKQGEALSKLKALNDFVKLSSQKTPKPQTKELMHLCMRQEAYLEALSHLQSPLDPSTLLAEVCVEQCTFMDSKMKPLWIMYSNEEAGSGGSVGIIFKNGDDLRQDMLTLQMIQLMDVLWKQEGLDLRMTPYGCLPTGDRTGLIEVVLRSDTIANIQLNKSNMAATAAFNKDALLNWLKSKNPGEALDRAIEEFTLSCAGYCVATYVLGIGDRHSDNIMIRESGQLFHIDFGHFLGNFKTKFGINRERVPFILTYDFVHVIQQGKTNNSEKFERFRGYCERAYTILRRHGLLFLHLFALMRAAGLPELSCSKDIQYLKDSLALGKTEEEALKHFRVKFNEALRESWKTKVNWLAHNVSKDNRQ
T2 sequence (P27986 whole entry partner): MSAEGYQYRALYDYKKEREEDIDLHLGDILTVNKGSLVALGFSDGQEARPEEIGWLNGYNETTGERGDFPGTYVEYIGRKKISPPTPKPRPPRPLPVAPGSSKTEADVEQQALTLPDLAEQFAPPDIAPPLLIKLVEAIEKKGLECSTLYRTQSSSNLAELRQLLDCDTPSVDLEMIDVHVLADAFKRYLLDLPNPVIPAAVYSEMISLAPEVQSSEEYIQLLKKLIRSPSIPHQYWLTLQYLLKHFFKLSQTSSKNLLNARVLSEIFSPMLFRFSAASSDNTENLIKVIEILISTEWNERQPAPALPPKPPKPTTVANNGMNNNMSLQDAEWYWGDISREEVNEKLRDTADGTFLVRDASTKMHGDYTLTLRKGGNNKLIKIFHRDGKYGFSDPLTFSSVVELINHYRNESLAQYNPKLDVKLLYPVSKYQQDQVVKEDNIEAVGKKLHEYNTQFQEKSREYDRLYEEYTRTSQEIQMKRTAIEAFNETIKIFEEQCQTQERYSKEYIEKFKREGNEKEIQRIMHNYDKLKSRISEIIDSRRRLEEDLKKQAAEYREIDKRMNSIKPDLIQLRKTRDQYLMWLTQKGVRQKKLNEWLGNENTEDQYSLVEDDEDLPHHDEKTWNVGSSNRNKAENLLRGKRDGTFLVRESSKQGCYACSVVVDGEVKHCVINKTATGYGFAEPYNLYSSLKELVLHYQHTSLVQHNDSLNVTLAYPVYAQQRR
Description: as §1
The inhibition of phosphatidylinositol 3 kinase delta (PI3K δ) by those compounds prepared in Examples 1˜98 was investigated by the following experiment. The inhibition activity of each compound was measured in the following conditions: ATP=10 uM, and sample concentration=100 nM.
as §2, with “Raji cells” for “Macrophages (RAW264.7)”, “RPMI1640 (Hyclone, SH30027.02)” for “DMEM (Dulbecco's Modified Eagle Medium, Hyclon, SH30243.01)”, “0.25 μg/mL” for “10 ng/mL”, “IgM (immunoglobulin M, Southern Biotech, USA)” for “C5a (complement component 5a, 10 μg/mL; R&D, 2150-C5)”, “delta. 30” for “gamma. 5”, “delta” for “gamma”

Row | IC50 (PI3 Kinase (p120γ) (h)) [nM] | IC50 [1] [nM] | SMILES
1 | > 500 | > 500 | Nc1nc(N2CCC[C@H]2c2nc3cccc(Cl)c3c(=O)n2-c2cccc(F)c2)c2c(=O)nc[nH]c2n1 [Example 92, (S)-7-amino-5-(2-(5-chloro-3-(3-fluorophenyl)-4-oxo-3,4-dihydroquinazoline-2-yl)pyrrolidine-1-yl)pyrimido[4,5-d]pyrimidine-4(1H)-one]
2 | > 500 | 10 to 500 | C[C@H](Nc1ncnc2[nH]cnc(=O)c12)c1nn2ccc(Cl)c2c(=O)n1-c1ccccc1 [Example 71, (S)-5-((1-(5-chloro-4-oxo-3-phenyl-3,4-dihydropyrrolo[2,1-f][1,2,4]triazine-2-yl)ethyl)amino)pyrimido[4,5-d]pyrimidine-4(1H)-one]
3 | > 500 | > 500 | Cc1cccc(-n2c([C@@H]3CCCN3c3ncnc4[nH]cnc(=O)c34)nc3cccc(Cl)c3c2=O)c1 [Example 78, (S)-5-(2-(5-chloro-4-oxo-3-(m-tolyl)-3,4-dihydroquinazoline-2-yl)pyrrolidine-1-yl)pyrimido[4,5-d]pyrimidine-4(1H)-one]
4 | > 500 | > 500 | O=c1nc[nH]c2ncnc(N3CCC[C@H]3c3nc4cccc(Cl)c4c(=O)n3-c3ccccc3)c12 [Example 74, (S)-5-(2-(5-chloro-4-oxo-3-phenyl-3,4-dihydroquinazoline-2-yl)pyrrolidine-1-yl)pyrimido[4,5-d]pyrimidine-4(1H)-one]
5 | > 500 | > 500 | O=c1nc[nH]c2ncnc(N3CCC[C@H]3c3nn4ccc(Cl)c4c(=O)n3-c3cccc(F)c3)c12 [Example 80, (S)-5-(2-(5-chloro-3-(3-fluorophenyl)-4-oxo-3,4-dihydropyrrolo[2,1-f][1,2,4]triazine-2-yl)pyrrolidine-1-yl)pyrimido[4,5-d]pyrimidine-4(1H)-one]
6 | > 500 | > 500 | Nc1nc(N2CCC[C@H]2c2nc3cccc(Cl)c3c(=O)n2-c2cccnc2)c2c(=O)nc[nH]c2n1 [Example 91, (S)-7-amino-5-(2-(5-chloro-4-oxo-3-(pyridine-3-yl)-3,4-dihydroquinazoline-2-yl)pyrrolidine-1-yl)pyrimido[4,5-d]pyrimidine-4(1H)-one]

Further lines, the molecule ahead of its results:

Row | SMILES | IC50 (PI3 Kinase (p120γ) (h)) [nM] | IC50 [1] [nM]
7 | C[C@H](Nc1nc(N)nc2c1C(=O)N(C)CN2)c1cc2ccccc2nc1-c1ccccc1 [Example 53, (S)-7-amino-3-methyl-5-((1-(2-phenylquinoline-3-yl)ethyl)amino)-2,3-dihydropyrimido[4,5-d]pyrimidine-4(1H)-one] | 10 to 500 | 10 to 500
8 | C[C@H](Nc1ncnc2[nH]cnc(=O)c12)c1cc2ccccc2nc1-c1ccccc1 [Example 72, (S)-5-((1-(2-phenylquinoline-3-yl)ethyl)amino)pyrimido[4,5-d]pyrimidine-4(1H)-one] | > 500 | > 500
9 | C[C@H](Nc1nc(N)nc2[nH]cnc(=O)c12)c1nc2cccc(Cl)c2c(=O)n1-c1cccnc1 [Example 82, (S)-7-amino-5-((1-(5-chloro-4-oxo-3-(pyridine-3-yl)-3,4-dihydroquinazoline-2-yl)ethyl)amino)pyrimido[4,5-d]pyrimidine-4(1H)-one] | 10 to 500 | 10 to 500
10 | C[C@H](Nc1nc(N)nc2[nH]cnc(=O)c12)c1nn2ccc(Cl)c2c(=O)n1-c1ccccc1 [Example 86, (S)-7-amino-5-((1-(5-chloro-4-oxo-3-phenyl-3,4-dihydropyrrolo[2,1-f][1,2,4]triazine-2-yl)ethyl)amino)pyrimido[4,5-d]pyrimidine-4(1H)-one] | 10 to 500 | 10 to 500
11 | CN1CNc2nc(N)nc(N3CCC[C@H]3c3nc4cccc(Cl)c4c(=O)n3-c3ccccc3)c2C1=O [Example 55, (S)-7-amino-5-(2-(5-chloro-4-oxo-3-phenyl-3,4-dihydroquinazoline-2-yl)pyrrolidine-1-yl)-3-methyl-2,3-dihydropyrimido[4,5-d]pyrimidine-4(1H)-one] | 10 to 500 | 10 to 500
12 | C[C@H](Nc1ncnc2[nH]cnc(=O)c12)c1nc2cccc(Cl)c2c(=O)n1-c1ccccc1 [Example 66, (S)-5-((1-(5-chloro-4-oxo-3-phenyl-3,4-dihydroquinazoline-2-yl)ethyl)amino)pyrimido[4,5-d]pyrimidine-4(1H)-one] | > 500 | 10 to 500
13 | CC[C@H](Nc1ncnc2[nH]cnc(=O)c12)c1nc2cccc(F)c2c(=O)n1-c1ccccc1 [Example 73, (S)-5-((1-(5-fluoro-4-oxo-3-phenyl-3,4-dihydroquinazoline-2-yl)propyl)amino)pyrimido[4,5-d]pyrimidine-4(1H)-one] | > 500 | > 500
14 | CN1CNc2ncnc(N3CCC[C@H]3c3nc4cccc(Cl)c4c(=O)n3-c3cccnc3)c2C1=O [Example 43, (S)-5-(2-(5-chloro-4-oxo-3-(pyridine-3-yl)-3,4-dihydroquinazoline-2-yl)pyrrolidine-1-yl)-3-methyl-2,3-dihydropyrimido[4,5-d]pyrimidine-4(1H)-one] | > 500 | > 500
15 | C[C@H](Nc1ncnc2[nH]cnc(=O)c12)c1cc2cccc(Cl)c2c(=O)n1-c1ccccc1 [Example 70, (S)-5-((1-(8-chloro-1-oxo-2-phenyl-1,2-dihydroisoquinoline-3-yl)ethyl)amino)pyrimido[4,5-d]pyrimidine-4(1H)-one] | 10 to 500 | 10 to 500
16 | CC[C@H](Nc1nc(N)nc2[nH]cnc(=O)c12)c1nc2cccc(F)c2c(=O)n1-c1ccccc1 [Example 89, (S)-7-amino-5-((1-(5-fluoro-4-oxo-3-phenyl-3,4-dihydroquinazoline-2-yl)propyl)amino)pyrimido[4,5-d]pyrimidine-4(1H)-one] | 10 to 500 | 10 to 500
17 | C[C@H](Nc1ncnc2c1C(=O)N(C)CN2)c1nc2cccc(Cl)c2c(=O)n1-c1cccc(F)c1 [Example 36, (S)-5-((1-(5-chloro-3-(3-fluorophenyl)-4-oxo-3,4-dihydroquinazoline-2-yl)ethyl)amino)-3-methyl-2,3-dihydropyrimido[4,5-d]pyrimidine-4(1H)-one] | 10 to 500 | < 10
18 | CC[C@H](Nc1ncnc2c1C(=O)N(C(C)C)CN2)c1nc2cccc(F)c2c(=O)n1-c1ccccc1 [Example 65, (S)-5-(1-(5-fluoro-4-oxo-3-phenyl-3,4-dihydroquinazoline-2-yl)propylamino)-3-isopropyl-2,3-dihydropyrimido[4,5-d]pyrimidine-4(1H)-one] | > 500 | > 500
19 | C[C@H](Nc1ncnc2[nH]ccc(=O)c12)c1nc2ccc(F)cc2c(=O)n1Cc1ccccn1 [Example 32, (S)-4-((1-(6-fluoro-4-oxo-3-(pyridine-2-ylmethyl)-3,4-dihydroquinazoline-2-yl)ethyl)amino)pyrido[2,3-d]pyrimidine-5(8H)-one] |  | > 500
20 | C[C@H](Nc1nc(N)nc2c1C(=O)N(C)CN2)c1nc2cccc(Cl)c2c(=O)n1-c1ccccc1 [Example 48, (S)-7-amino-5-((1-(5-chloro-4-oxo-3-phenyl-3,4-dihydroquinazoline-2-yl)ethyl)amino)-3-methyl-2,3-dihydropyrimido[4,5-d]pyrimidine-4(1H)-one] | < 10 | < 10
